Experimental data from patent US6403808B1, “Selective 5-HT6 receptor ligands” (priority 2001, dated 2002).
Counter-ions that a name gives are not always drawn. Like-named read-outs stand apart in the source and are kept apart here.

What was measured:
human 5-HT6 = target: T1, human 5-HT6 (Homo sapiens, UniProt P50406); experiment: biochemical; type: binding
T1 construct: expressed in transfected cells; host or cells: HEK 293

5-HT3 receptors = target: T2, 5-HT3 receptors (Homo sapiens, UniProt P46098); experiment: Affinity at 5-HT3 receptors; type: binding
T2 sequence (P46098 24-478): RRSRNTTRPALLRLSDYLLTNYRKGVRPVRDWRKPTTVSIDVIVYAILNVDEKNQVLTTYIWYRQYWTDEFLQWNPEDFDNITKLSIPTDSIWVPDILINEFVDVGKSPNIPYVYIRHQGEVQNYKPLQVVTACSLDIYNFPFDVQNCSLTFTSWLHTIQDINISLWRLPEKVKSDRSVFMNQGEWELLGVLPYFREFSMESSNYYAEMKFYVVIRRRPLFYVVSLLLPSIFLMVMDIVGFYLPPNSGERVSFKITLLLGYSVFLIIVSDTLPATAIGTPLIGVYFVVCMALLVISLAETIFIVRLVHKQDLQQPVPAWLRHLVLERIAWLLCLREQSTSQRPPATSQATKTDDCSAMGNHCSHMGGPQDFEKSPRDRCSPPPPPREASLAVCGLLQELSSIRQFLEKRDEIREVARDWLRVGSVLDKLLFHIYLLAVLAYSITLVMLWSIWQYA

[1] = target: T3, Human 5-HT6 receptors stably expressed in 293 HEK cells (Homo sapiens, UniProt P50406); experiment: cAMP activation assay (adenylate cyclase activity); type: cell-based; details: 5-HT6 receptor
T3 construct: expressed in transfected cells; host or cells: HEK 293
Description: Human 5-HT6 receptors stably expressed in 293 HEK cells were grown in 24-well plates to near confluence and 18 h prior to the assay the medium was replaced with DMEM containing dialyzed 10% Fetal Calf Serum. For the assay, the medium was aspirated and replaced with fresh DMEM without serum and incubated with various concentrations of compounds of the invention in a total volume of 0.5 ml for 15 min. The assay was terminated by aspiration and the addition of 10% trichloroacetic acid (TCA). The TCA extract was used for cAMP determinations. (Data represent the mean of N=4 separate determinations). Results of cAMP activation by various compounds of the invention are shown in the attached Drawing of FIG. 1.

rD3 = rD3 (Rattus norvegicus, UniProt P19020); experiment: NIMH PDSP selectivity binding, rD3
Description: (§1) . […] NET and SERT represent the norepinephrine and serotonin transporters.

rD4 = target: T4, rD4 (Rattus norvegicus, UniProt P30729); experiment: NIMH PDSP selectivity binding, rD4
T4 sequence (P30729 1-387): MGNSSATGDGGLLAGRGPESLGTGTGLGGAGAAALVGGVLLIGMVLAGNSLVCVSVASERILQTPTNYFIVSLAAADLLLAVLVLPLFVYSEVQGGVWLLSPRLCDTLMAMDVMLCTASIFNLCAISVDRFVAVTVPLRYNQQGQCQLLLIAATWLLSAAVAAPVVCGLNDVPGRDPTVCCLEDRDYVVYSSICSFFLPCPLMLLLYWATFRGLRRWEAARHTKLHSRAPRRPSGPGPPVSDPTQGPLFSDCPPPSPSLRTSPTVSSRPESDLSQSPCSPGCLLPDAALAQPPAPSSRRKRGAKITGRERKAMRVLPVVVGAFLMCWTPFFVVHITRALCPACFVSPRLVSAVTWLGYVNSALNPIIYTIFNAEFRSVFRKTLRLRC
Description: as §1

hD5 = hD5 (Homo sapiens, UniProt P21918); experiment: NIMH PDSP selectivity binding, hD5
Description: as §1

hD1 = hD1 (Homo sapiens, UniProt P21728); experiment: NIMH PDSP selectivity binding, hD1
Description: as §1

rD2 = rD2 (Rattus norvegicus, UniProt P61169); experiment: NIMH PDSP selectivity binding, rD2
Description: as §1

Sequence of hD1 (P21728 whole entry): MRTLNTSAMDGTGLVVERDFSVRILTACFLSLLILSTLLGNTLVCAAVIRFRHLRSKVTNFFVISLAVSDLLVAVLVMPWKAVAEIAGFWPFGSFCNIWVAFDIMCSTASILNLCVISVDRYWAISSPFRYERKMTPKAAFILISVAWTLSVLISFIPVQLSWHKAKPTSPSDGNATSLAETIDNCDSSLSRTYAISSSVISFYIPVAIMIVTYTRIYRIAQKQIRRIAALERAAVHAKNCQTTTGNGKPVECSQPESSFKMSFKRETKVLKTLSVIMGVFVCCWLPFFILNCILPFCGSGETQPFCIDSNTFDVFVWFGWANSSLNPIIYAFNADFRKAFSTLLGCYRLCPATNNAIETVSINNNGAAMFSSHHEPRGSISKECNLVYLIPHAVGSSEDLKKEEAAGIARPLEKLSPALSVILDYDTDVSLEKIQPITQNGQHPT
Sequence of rD2 (P61169 whole entry): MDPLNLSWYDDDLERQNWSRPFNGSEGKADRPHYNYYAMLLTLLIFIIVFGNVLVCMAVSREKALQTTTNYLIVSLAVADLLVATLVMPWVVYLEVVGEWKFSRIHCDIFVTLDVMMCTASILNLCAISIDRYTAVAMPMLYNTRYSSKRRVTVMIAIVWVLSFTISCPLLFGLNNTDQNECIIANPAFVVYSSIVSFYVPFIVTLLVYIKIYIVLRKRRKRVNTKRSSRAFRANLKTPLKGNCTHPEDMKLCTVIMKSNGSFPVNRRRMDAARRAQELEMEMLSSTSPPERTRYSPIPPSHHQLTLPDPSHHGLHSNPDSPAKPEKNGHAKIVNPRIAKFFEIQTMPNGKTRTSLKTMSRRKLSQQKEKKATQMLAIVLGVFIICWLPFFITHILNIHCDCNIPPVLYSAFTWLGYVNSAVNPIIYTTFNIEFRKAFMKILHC
T1 sequence (P50406 whole entry): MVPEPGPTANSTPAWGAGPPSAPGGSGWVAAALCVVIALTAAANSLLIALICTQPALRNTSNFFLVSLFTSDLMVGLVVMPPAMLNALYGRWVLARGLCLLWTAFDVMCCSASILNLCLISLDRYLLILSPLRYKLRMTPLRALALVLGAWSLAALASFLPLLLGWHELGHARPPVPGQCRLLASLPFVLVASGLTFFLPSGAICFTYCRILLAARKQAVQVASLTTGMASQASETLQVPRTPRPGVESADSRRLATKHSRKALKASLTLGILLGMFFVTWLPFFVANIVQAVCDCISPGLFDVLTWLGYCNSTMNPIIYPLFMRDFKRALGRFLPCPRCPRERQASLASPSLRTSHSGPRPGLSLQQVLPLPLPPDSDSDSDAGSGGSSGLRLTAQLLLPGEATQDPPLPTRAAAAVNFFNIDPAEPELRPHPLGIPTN
Sequence of hD5 (P21918 whole entry): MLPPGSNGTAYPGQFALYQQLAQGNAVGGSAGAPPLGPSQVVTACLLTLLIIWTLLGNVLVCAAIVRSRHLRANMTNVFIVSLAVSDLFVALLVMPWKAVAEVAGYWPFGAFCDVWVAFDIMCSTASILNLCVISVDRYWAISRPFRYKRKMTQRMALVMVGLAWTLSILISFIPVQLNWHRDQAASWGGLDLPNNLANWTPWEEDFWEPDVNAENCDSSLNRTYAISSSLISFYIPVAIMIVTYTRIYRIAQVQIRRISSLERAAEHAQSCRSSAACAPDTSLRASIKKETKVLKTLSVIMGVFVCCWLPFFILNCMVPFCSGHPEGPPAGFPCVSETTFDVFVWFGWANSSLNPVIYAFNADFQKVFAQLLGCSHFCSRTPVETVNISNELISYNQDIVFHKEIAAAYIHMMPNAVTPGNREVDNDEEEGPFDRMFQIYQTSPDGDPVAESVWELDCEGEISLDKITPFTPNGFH
Sequence of rD3 (P19020 whole entry): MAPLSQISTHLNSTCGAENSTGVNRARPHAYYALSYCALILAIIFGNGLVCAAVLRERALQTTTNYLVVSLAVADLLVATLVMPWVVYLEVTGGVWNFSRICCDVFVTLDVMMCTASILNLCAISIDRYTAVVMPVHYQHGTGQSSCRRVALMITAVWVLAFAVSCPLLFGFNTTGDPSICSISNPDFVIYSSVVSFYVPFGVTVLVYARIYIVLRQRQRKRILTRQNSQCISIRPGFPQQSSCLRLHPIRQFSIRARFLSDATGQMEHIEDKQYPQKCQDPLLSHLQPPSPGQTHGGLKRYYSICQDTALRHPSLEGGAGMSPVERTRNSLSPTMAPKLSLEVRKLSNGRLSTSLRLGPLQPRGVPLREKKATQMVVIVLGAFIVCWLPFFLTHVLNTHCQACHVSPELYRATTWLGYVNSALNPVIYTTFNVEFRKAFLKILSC
T3 sequence (P50406 whole entry): as the sequence (P50406 whole entry) above

Q: For Cc1[nH]c2ccc(O)cc2c1CCN [2-methyl-5-HT, reference compound], which “affinity for the 5-HT6 receptor (in words)” value (human 5-HT6) is on record?
A: The value was “high affinity”.

Q: And the “affinity for the 5-HT6 receptor (in words)” value (human 5-HT6; listed as 2-methyly-5-HT)?
A: Its value is “affinity equivalent to that of the parent compound”.

Q: And the “greater affinity at 5-HT6 than at 5-HT3 receptors” value (5-HT3 receptors; 5-HT6 over 5-HT3)?
A: Its value is 20 fold.

Q: For Cc1[nH]c2ccccc2c1CCN(C)C [2-methyl-N,N-dimethyltryptamine], which Ki (human 5-HT6; read-out: affinity for the 5-HT6 receptor, Ki) is on record?
A: Its Ki is 0.308 µM.

Q: For COc1ccc2[nH]c(C)c(CCN)c2c1 [5-methoxy-2-methyltryptamine, reference compound], which “affinity for the 5-HT6 receptor (in words)” value (human 5-HT6) is on record?
A: Its value is “affinity comparable to 2-methyl-5-HT”.

Q: What about the “affinity for 5-HT3 receptors (in words)” value (5-HT3 receptors) of the same compound?
A: Its value is “lacks affinity”.

Q: With COc1ccc2[nH]c(-c3ccccc3)c(CCN)c2c1 [5-methoxy-2-phenylotryptamine] as the compound, how does the “affinity for the 5-HT6 receptor (in words)” value (human 5-HT6) read?
A: The value was “high affinity”.

Q: What about the “effect on adenylate cyclase activity (in words)” value [1] of the same compound?
A: Its value is “antagonist to 5-HT stimulated adenylate cyclase activity”.

Q: With COc1ccc2[nH]c(C)c(CCN(C)C)c2c1 [Compound A, 2-methyl-5-methoxy-N,N-dimethyltryptamine] as the compound, how does the Ki (rD3) read?
A: Its Ki is > 10 µM.

Q: What about the Ki (rD4) of the same compound?
A: The Ki was > 10 µM.

Q: What about the Ki (hD5) of the same compound?
A: Its Ki is > 10 µM.

Q: What about the Ki (hD1) of the same compound?
A: The Ki was > 10 µM.

Q: What about the Ki (rD2) of the same compound?
A: Its Ki is > 10 µM.

Q: Which results are given for CCc1[nH]c2ccc(OC)cc2c1CCN(C)C [Compound B, 2-ethyl-5-methoxy-N,N-dimethyltryptamine maleate]?
A: Ki (rD3): > 10 µM; Ki (rD4): > 10 µM; Ki (hD5): > 10 µM; Ki (hD1): > 10 µM; Ki (rD2): > 10 µM

Q: Which results are given for COc1ccc2[nH]c(-c3ccccc3)c(CCN(C)C)c2c1 [Compound D, 5-methoxy-2-phenyl-N,N-dimethyltryptamine oxalate]?
A: Ki (rD4; rD4, read-out: Ki): ≥ 10 µM; Ki (hD1; hD1, read-out: Ki): ≥ 10 µM; Ki (rD2; rD2, read-out: Ki): ≥ 10 µM

Q: Which Ki (human 5-HT6; human 5-HT6 in HEK 293, [3H]LSD, third table, read-out: Ki) does the source give for COc1ccc2c(c1)c(CCN(C)C)c1n2CCCC1=O [I, 6,7,8,9-tetrahydro-2-methoxy-10-(N,N-dimethylaminoethyl)pyridol[1,2-a]indole-9-one Oxalate] here?
A: Its Ki is 0.084 µM.
